From patent US7407936B2, “Use of copolymer 1 and related peptides and polypeptides and T cells treated herewith for neuroprotective glaucoma therapy” (Yeda Research and Development Co. Ltd., priority 2000, dated 2008)

Key:
[1] = test system: retinal ganglion cells (RGCs); test: Glutamate toxicity in mice (intravitreal glutamate), RGC survival; format: in vivo, C57BL/6J mice
retinal ganglion cells = test: Ocular hypertension (laser-induced increased IOP) in rats, RGC survival; format: in vivo, Lewis rats; conditions: immunized in CFA on the day of the first laser treatment; after 3 weeks; p<0.0001
[2] = test system: retinal ganglion cells (RGCs); test: Optic nerve crush injury in rats: secondary degeneration by retrograde labeling of RGCs; format: in vivo, Lewis rats; conditions: mild crush; vaccinated with Cop 1 in IFA immediately, booster two days later; P<0.05
Experimental: Crush Injury of Optic Nerve. The optic nerve was subjected to crush injury as previously described (Duvdevani et al, 1990). Briefly, rats were deeply anesthetized by intraperitoneal (i.p.) injection of Rompun (xylazine, 10 mg/kg; Vitamed, Israel) and Vetalar (ketamine, 50 mg/kg; Fort Dodge Laboratories, Fort Dodge, Iowa). Using a binocular operating microscope, lateral canthotomy was performed in the right eye, and the conjunctiva was incised lateral to the cornea. After separation of the retractor bulbi muscles, the optic nerve was exposed intraorbitally by blunt dissection. Using calibrated cross-action forceps, the optic nerve was subjected to a crush injury 1-2 mm from the eye. […]
Measurement of Secondary Degeneration by Retrograde Labeling of Retinal Ganglion Cells. Secondary degeneration of the optic nerve axons and their attached retinal ganglion cells (RGCs) was measured after post-injury application of the fluorescent lipophilic dye, 4-(4-(didecylamino)styryl)-N-methylpyridinium iodide (4-Di-10-Asp) (Molecular Probes Europe BV, Netherlands), distally to the lesion site, two weeks after crush injury. Because only axons that are intact can transport the dye back to their cell bodies, application of the dye distally to the lesion site after two weeks ensures that only axons that survived both the primary damage and the secondary degeneration will be counted. […]

[3] = test system: retinal ganglion cells (RGCs); test: Severe optic nerve crush injury in mice, RGC survival; format: in vivo, Balb/c mice; conditions: 50 μg Cop-1 in CFA before severe crush; two weeks after injury; p<0.001
[4] = batches of average molecular weight 23,000; Teitelbaum et al; cited from earlier work
[5] = test system: retinal ganglion cells (RGCs); test: NMDA toxicity in mice (intravitreal NMDA), RGC survival; format: in vivo; conditions: immunized ten days before NMDA (75 nmole); p=0.55 vs PBS
[6] = patients, cited from earlier work

Substance	RGC survival after glutamate injection, effect of immunization ([1]; pMOG in CFA prior to glutamate (200 nmole), assessed 1 week later)	numbers of surviving retinal ganglion cells versus PBS/CFA controls (retinal ganglion cells)	glutamate toxicity in controls relative to immunized mice ([1]; 75 μg Cop 1 in CFA ten days before 200 nmoles glutamate, RGCs counted seven days later)	mean percentage survival rate of RGCs versus PBS-injected ([1]; immunization 24 h after glutamate injection)	mean percentage survival rate of RGCs versus PBS-injected ([1]; immunization 48 h after glutamate injection)	rates of RGC survival versus PBS in adjuvant ([1]; immunized on the day of glutamate injection, adjuvant 0.5 or 5 mg/ml bacteria)	glutamate toxicity (RGC survival) after immunization ([1]; immunized ten days before glutamate, adjuvant 5 mg/ml bacteria)	neuroprotection (surviving RGCs) compared with PBS in IFA [2]	RGC survival rates relative to non-immunized controls [3]	protecting and suppressing EAE [4]	protection from toxicity caused by NMDA (RGC survival) [5]	number of relapses in exacerbating-remitting MS ([6]; Bornstein 1990, Sela 1990, Johnson 1994)	tolerability in clinical trials ([6]; Johnson et al, 1995)
GQFRVIGPGHPIRALVGDEAEL (listed as Homo sapiens) [pMOG, Myelin oligodendrocyte glycoprotein (MOG) peptide 1-22]	no evidence of a beneficial effect												
Glatiramer acetate [Cop 1]		significantly higher	about four	significantly higher	not significant	significantly higher	significant reduction	significant neuroprotection	significantly higher	highly effective	failed to protect	significantly reduce	well tolerated with only minor side reactions
